# Legend:
# [1] = biological target: T1, Human androgen receptor (HAR) (Homo sapiens, UniProt P10275); experiment: Relative bond affinity (RBA), recombinant human androgen receptor, charcoal dextran technique; format: binding; details: 24 h at 0° C., Testosterone = 100
# T1 construct: made in house; host or cells: SF9 insect cells (baculovirus), lysate supernatant
# T1 sequence (P10275 1-920): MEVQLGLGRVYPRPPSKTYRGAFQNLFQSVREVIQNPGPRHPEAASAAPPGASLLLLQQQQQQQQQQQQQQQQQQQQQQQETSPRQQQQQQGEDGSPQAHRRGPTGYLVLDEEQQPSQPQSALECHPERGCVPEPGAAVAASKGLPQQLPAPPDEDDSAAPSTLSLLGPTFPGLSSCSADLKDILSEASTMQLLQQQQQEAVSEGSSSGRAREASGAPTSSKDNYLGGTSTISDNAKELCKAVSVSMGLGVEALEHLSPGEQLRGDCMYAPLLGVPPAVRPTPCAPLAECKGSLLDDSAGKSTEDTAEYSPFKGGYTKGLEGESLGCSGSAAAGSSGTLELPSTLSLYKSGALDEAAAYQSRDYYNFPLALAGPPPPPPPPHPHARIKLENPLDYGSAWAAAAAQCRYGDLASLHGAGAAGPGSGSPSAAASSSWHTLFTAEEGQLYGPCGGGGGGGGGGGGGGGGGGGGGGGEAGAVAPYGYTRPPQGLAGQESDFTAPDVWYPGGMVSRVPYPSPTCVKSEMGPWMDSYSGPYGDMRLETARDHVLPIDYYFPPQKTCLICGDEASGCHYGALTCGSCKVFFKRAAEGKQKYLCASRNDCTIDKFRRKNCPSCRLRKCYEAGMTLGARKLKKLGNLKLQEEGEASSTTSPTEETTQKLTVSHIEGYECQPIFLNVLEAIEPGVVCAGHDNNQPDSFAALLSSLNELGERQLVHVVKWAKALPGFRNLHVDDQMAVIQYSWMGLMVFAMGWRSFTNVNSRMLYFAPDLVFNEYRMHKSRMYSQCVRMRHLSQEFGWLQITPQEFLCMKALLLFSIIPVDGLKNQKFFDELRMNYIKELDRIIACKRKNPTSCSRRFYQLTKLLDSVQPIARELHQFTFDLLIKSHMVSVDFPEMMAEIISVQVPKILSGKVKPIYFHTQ
# Method: (§1) The human recombinant receptor (HGR, HPR, HAR, HMR, HER) was used.
# Human androgen receptor (HAR)
# A supernatant of SF9 cells containing the recombinant human androgen receptor was obtained by the process described above for the progestogen receptor using the cDNA fragment containing the region coding for the human androgen receptor. The cells obtained were lysed in the lysis buffer (3). The supernatant was incubated at 0° C. for an incubation time of 24 hours with a constant concentration (T) of tritiated testosterone in the presence of increasing concentrations of either unlabelled testosterone (0 to 1000×10^-9 M), or the unlabelled product to be tested (1 to 25000×10^-9 M). The concentration of bound tritiated testosterone (B) was then measured in each incubate using the charcoal dextran adsorption technique.
# Calculation of the relative bond affinity (RBA).
# (§2) The following two curves were drawn: the percentage of bound tritiated hormone B/BO as a function of the logarithm of the concentration of unlabelled reference hormone or as a function of the logarithm of the concentration of unlabelled test product. The straight line of the following equation was determined: […]
# (§3) The relative bond affinity (RBA) of the test product was determined by the equation: […]
# [2] = biological target: T2, Human glucocorticoid receptor (HGR) (Homo sapiens, UniProt P04150); experiment: Relative bond affinity (RBA), recombinant human glucocorticoid receptor, charcoal dextran technique; format: binding; details: 24 h at 0° C.; Dexamethasone = 100
# T2 construct: made in house; host or cells: SF9 insect cells (baculovirus), lysate supernatant
# T2 sequence (P04150 1-777): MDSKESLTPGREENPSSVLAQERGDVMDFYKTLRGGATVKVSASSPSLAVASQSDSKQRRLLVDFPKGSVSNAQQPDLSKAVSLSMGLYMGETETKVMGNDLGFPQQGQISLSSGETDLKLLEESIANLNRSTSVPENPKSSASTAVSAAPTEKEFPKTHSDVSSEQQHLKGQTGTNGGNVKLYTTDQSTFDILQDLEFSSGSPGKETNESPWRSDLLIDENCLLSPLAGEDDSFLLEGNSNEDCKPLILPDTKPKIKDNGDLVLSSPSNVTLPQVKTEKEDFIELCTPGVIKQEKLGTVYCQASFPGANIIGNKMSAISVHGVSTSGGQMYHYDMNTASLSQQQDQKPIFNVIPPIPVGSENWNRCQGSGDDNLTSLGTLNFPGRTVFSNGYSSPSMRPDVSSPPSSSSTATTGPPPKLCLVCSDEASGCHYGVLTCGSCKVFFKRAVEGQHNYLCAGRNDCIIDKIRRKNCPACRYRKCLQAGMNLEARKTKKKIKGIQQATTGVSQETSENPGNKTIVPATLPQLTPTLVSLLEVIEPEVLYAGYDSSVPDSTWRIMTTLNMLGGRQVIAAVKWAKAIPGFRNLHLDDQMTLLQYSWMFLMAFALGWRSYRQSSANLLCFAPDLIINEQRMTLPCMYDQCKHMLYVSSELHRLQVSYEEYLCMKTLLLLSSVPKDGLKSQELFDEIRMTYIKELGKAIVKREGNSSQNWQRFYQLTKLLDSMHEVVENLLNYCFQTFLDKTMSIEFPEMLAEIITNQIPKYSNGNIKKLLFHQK
# Text: as §1
# Human glucocorticoid receptor (HGR):
# A supernatant of SF9 cells containing the recombinant human glucocorticoid receptor was obtained by the process described above for the progestogen receptor using the cDNA fragment described by Hollenberg et al (Nature, (1985), Vol. 318 No. 19/26 635) containing the region coding for the human glucocorticoid receptor. The cells obtained were lysed in the lysis buffer (2).
# The supernatant was incubated at 0° C. for 24 hours with a constant concentration (T) of tritiated 11β, 17β-dihydroxy-6,21-dimethyl-[…] the presence of increasing concentrations of either unlabelled dexamethasone (0-1000×10^-9 M), or the unlabelled product to be tested (1 to 25000×10^-9 M). The concentration of bound tritiated 11β, 17β-dihydroxy-6,21-dimethyl-Δ^1,4,6 -pregnatriene-20-yn-3-one (B) was then measured in each incubate using the charcoal dextran adsorption technique. […]
# as §2, §3
# [3] = tested on: endometrial proliferation (uterine lace); experiment: Progestomimetic activity: endometrial transformation in the rabbit (Clauberg-McPhail test); format: in vivo; parameters: key to Average uterine lace (McPhail Index): McPhail scale 0–4 with 0.5 steps (endometrial proliferation); details: for Progestomimetic activity: rabbit
"RBA, Human androgen receptor [1]","RBA, Human androgen receptor ([1]; listed as product B)","RBA, Human glucocorticoid receptor [2]",SMILES,Progestomimetic activity ([3]; 3 μg/kg percutaneously),"Average uterine lace (McPhail Index) ([3]; rabbit, 0,003 mg/kg, s/c, day 8 to day 11)",Progestomimetic activity ([3]; 3 and 10 μg/kg orally)
0,no or negligible RBA's,no or negligible RBA's,"C[C@H](O)C(=O)[C@@]1(C)CC[C@H]2[C@@H]3C[C@@H](O)C4=CC(=O)CCC4=C3CC[C@@]21C [Product B, [6β, 17β-(S)]-6-hydroxy-17-(2-hydroxy-1-oxopropyl)-17-methyl-Δ^4,9-estradiene-3-one]",,,
,,,"C[C@H](O)C(=O)[C@@]1(C)CC[C@H]2[C@@H]3CCC4=CC(=O)CCC4=C3CC[C@@]21C [Trimegestone, [17β-(S)]-17-(2-hydroxy-1-oxopropyl)-17-methyl-Δ^4,9-estradiene-3-one, reference compound]",strong activity,"3,8",strong activity
